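Dose response: 5 concentrations. Exposure: 48 h. Format: 96-well plates. Endpoint: linear interpolation; highest concentration if not reached. The concentration for full growth arrest is given as TGI.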
Key:
Experiment in all cases: NCI anticancer screen, dose series, 48 h
[1] = test system: ACHN renal
[2] = test system: CAKI-1 renal
[3] = test system: HCC-2998 colon
[4] = test system: HOP-62 NSCLC
[5] = test system: IGROV1 ovarian
[6] = test system: NCI-H226 lung
[7] = test system: PC-3 prostate
[8] = test system: SF-295 CNS
[9] = test system: SF-539 CNS
[10] = test system: SK-MEL-28 melanoma
[11] = test system: SK-OV-3 ovarian
[12] = test system: UACC-62 melanoma

| Compound | TGI [1] | TGI [2] | TGI [3] | TGI [4] | TGI [5] | TGI [6] | TGI [7] | TGI [8] | TGI [9] | TGI [10] | TGI [11] | TGI [12] |
| --- | --- | --- | --- | --- | --- | --- | --- | --- | --- | --- | --- | --- |
| COC(=O)C(C)(N=Cc1ccccc1)c1ccccc1 (stereo not given) | > 100 µM | > 100 µM | > 100 µM | > 100 µM | > 100 µM | > 100 µM | > 100 µM | > 100 µM | > 100 µM | > 100 µM | > 100 µM | > 100 µM |
| COc1ccc(S(=O)(=O)O)cc1-n1nc(C(=O)Nc2ccccc2)n[n+]1-c1cc(S(=O)(=O)[O-])ccc1OC | > 100 µM | > 100 µM | > 100 µM | > 100 µM | > 100 µM | > 100 µM | > 100 µM | > 100 µM | > 100 µM | > 100 µM | > 100 µM | > 100 µM |
| CC12CCC(C(=O)O1)C(C)(C)O2 (stereo not given) | > 100 µM | > 100 µM | > 100 µM | > 100 µM | > 100 µM | > 100 µM | > 100 µM | > 100 µM | > 100 µM | > 100 µM | > 100 µM | > 100 µM |
| COc1ccc2cc1Oc1ccc(cc1)C(Sc1ccccc1)CCOC(=O)CC2 (stereo not given) | > 100 µM | > 100 µM | > 100 µM | > 100 µM | > 100 µM | > 100 µM | > 100 µM | > 100 µM | > 100 µM | > 100 µM | > 100 µM | > 100 µM |
| O=C1/C(=C\c2cccc(Oc3ccccc3)c2)S(=O)(=O)C(c2ccccc2)N1c1ccccc1Cl (stereo not given) | > 100 µM | > 100 µM | > 100 µM | > 100 µM | > 100 µM | > 100 µM | > 100 µM | > 100 µM | 34.3 µM | > 100 µM | > 100 µM | 94.8 µM |

From PubChem BioAssay (NCI)
